Key:
OPCs from P0 mice = assay: Proliferation assay (BrdU incorporation); format: cell-based, mouse; details: murine P0 OPCs, 1 μM, 72 h
Experimental: We isolated OPCs, as previously described. Briefly, a stock papain solution was prepared containing ([…]; Worthington Biochemical), L-cysteine (0.2 mg/ml; Sigma), and EDTA (0.2 mg/ml; Sigma) in Hank’s Balanced Salt Solution (HBSS; Invitrogen) without Ca^2+ and Mg[2]. Then, the cerebral cortices of P0 CD1 mice were dissected out and placed for 5 minutes at 37 °C in a medium containing the stock papain solution in HBSS with Ca^2+ and Mg^2+ (1:10; Invitrogen) in order to easily remove the meninges. […] The resulting enriched oligodendrocyte progenitor cell suspension was counted and seeded.
OPCs were placed on coverslips coated with poly-L-lysine (Sigma) and laminin (Sigma; 2 × 10^4 cells/well) and they were incubated with the inhibitors (VP3.15 or TDZD8; 1 μM) in the serum free medium described above. After 42 h in culture, BrdU (50 μM; Sigma) was added for 6 h and after a total of 72 h in culture, the cells were fixed and BrdU incorporation was detected by immunocytochemistry (1:20; G3G4, HybridomaBank) combined with the detection of the oligodendroglial marker Olig2 (1:250; Millipore; Cat#AB9610). […]

[1] = Pharmacokinetics in plasma and brain after single i.p. or oral dose; format: in vivo, male BALB/c mice; details: for AUCinf / AUClast / Cmax / MRT inf / MRT last / Tmax / AUC(0-inf) / AUC(0-t): male BALB/c mice; for Cmax / MRT inf / MRT last / Tmax / AUC(0-inf) / AUC(0-t): mouse
[2] = system: spinal cord injury models; parameters: method as in PMID 21297958, PMID 23077723; details: spinal cord injury models (as well as EAE); cited from earlier work
[3] = system: OPCs isolated from P0 mice; assay: Differentiation assay, murine OPCs; format: cell-based, mouse
Experimental: We isolated OPCs, as previously described. Briefly, a stock papain solution was prepared containing ([…]; Worthington Biochemical), L-cysteine (0.2 mg/ml; Sigma), and EDTA (0.2 mg/ml; Sigma) in Hank’s Balanced Salt Solution (HBSS; Invitrogen) without Ca^2+ and Mg[2]. Then, the cerebral cortices of P0 CD1 mice were dissected out and placed for 5 minutes at 37 °C in a medium containing the stock papain solution in HBSS with Ca^2+ and Mg^2+ (1:10; Invitrogen) in order to easily remove the meninges. Once meninges and choroid plexus were removed, the tissue was enzymatically dissociated for 5 minutes at 37 °C again by using the papain solution (1:10 in HBSS without Ca^2+ and Mg^2+) and the digested tissue was then filtered through a 100 μm nylon mesh strainer (BD Biosciences) and seeded on poly-L-ornithine-coated (Sigma) 75 cm^2 flasks in DMEM medium (Invitrogen) containing 10% foetal bovine serum (FBS; BioWhittaker) and 100 U/mL penicillin, 0.1 mg/mL streptomycin and 0.25 μg/ml Amphotericin B antibiotic antimycotic solution (Sigma). Cultures were maintained at 37 °C and 5% CO2, and the medium was changed every 3 days. When the cultures reached confluence, they were shaken overnight at 250 rpm and at 37 °C in order to detach the OPCs located on the top of the confluent astrocyte monolayer and the medium was then filtered through a 40μm nylon mesh strainer (BDBiosciences) and centrifuged at 900 rpm. Cells were seeded twice (45 minutes each) in bacterial grade Petri dishes (Sterilin) to remove microglial cells. The resulting enriched oligodendrocyte progenitor cell suspension was counted and seeded.
Purified OPCs were placed on coverslips coated with poly-L-lysine and laminin in 24-well tissue culture dishes at a density of 2 × 10^4 cells/well. To promote differentiation, the cells were maintained in the differentiation medium (described above) and PDE7-GSK3 or GSK3 inhibitors (VP3.15 or TDZD8; 1 μM) were added to the culture medium. Different controls were used for the dual or single inhibitors due to the active substance being dissolved in differing amounts of DMSO. After 5, 7 and 10 DIV the cells were fixed with 4% PFA for further immunocytochemical analysis. Anti-CNPase antibodies (1:200;Covance; Cat#SMI-91R), anti-MBP antibodies (1:200; Serotec; Cat#MCA4095) for detecting oligodendrocytes and anti-Olig2 antibodies (1:250; Millipore; Cat#AB9610) as a marker for all oligodendroglial stages were used. Ten random fluorescence digital images were taken in each coverslip with a DFC480 FX digital camera (Leica) coupled to a Leica DM5000 B microscope for quantification. Data were expressed as a mean ratio of differentiated oligodendrocytes (CNPase^+-Olig2^+ double positive cells) with respect to total Olig2^+ cells ± SEM or percentage of CNPase^+ cells respect to control ± SEM, in at least three independent experiments, except with human samples (two independent experiments).

PDE7 = system: PDE7; parameters: method as in PMID 24437940; details: read-out: PDE7 inhibition IC50; cited from earlier work
[4] = i.p. 10 mg.kg^−1 single dose, brain
[5] = ip, i.p. 10 mg.kg^−1 single dose, brain
[6] = ip, i.p. 10 mg.kg^−1 single dose, plasma
[7] = po, p.o. 50 mg.kg^−1 single dose, brain
[8] = po, p.o. 50 mg.kg^−1 single dose, plasma
[9] = p.o. 50 mg.kg^−1 single dose, brain
[10] = murine P0 OPCs, 1 μM, 5, 7 and 10 DIV

c1ccc(-c2n/c(=N/CCN3CCOCC3)sn2-c2ccccc2)cc1 [VP3.15]
OPC proliferation (BrdU+-Olig2+ cells) (OPCs from P0 mice): no changes | AUCinf [1, 4]: 1506.00 ng·h/g | AUClast [1, 4]: 1489.25 ng·h/g | oral bioavailability and brain penetration ([1]; mice, after oral and i.p. administration): shows oral bioavailability and brain penetration | Cmax [1, 5]: 1980 ng/g | MRT inf [1, 5]: 1.25 h | MRT last [1, 5]: 1.21 h | Tmax [1, 5]: 0.08 h | AUC(0-inf) [1, 6]: 2000 ng·h/mL | AUC(0-t) [1, 6]: 1960 ng·h/mL | Cmax [1, 6]: 1990 ng/mL | MRT inf [1, 6]: 0.91 h | MRT last [1, 6]: 0.82 h | Tmax [1, 6]: 0.25 h | Cmax [1, 7]: 497 ng/g | MRT inf [1, 7]: 4.01 h | MRT last [1, 7]: 2.07 h | Tmax [1, 7]: 0.5 h | AUC(0-inf) [1, 8]: 2380 ng·h/mL | AUC(0-t) [1, 8]: 2290 ng·h/mL | Cmax [1, 8]: 881 ng/mL | MRT inf [1, 8]: 1.86 h | MRT last [1, 8]: 1.64 h | Tmax [1, 8]: 1 h | AUCinf [1, 9]: 1794.28 ng·h/g | AUClast [1, 9]: 1375.08 ng·h/g | immunomodulatory effect [2]: immunomodulatory effect | number of mature oligodendrocytes (CNPase+-Olig2+ cells) vs control [3, 10]: significant increase | number of mature oligodendrocytes (MBP+-Olig2+ cells) vs control [3, 10]: significant increase | number of primary cytoplasmic processes ([3]; murine mature oligodendrocytes, control 4.9 ± 0.35, p = 0.64): 4.7 ± 0.31 | number of cytoplasmic subprocesses ([3]; murine mature oligodendrocytes, control 8.588 ± 0.875, p = 0.62): 8.111 ± 0.970 | IC50 (PDE7): 1590 nM

Source: paper PMC5335257, “Promoting in vivo remyelination with small molecules: a neuroreparative pharmacological treatment for Multiple Sclerosis” (Scientific Reports, 2017)
